Measurements: patent US20040192686A1, “Benzoazine mono-N-oxides and benzoazine 1,4 dioxides and compositions therefrom for the therapeutic use in cancer treatments” (Auckland Uniservices Limited, priority 2003, published 2004)
Converted amounts (≈) assume the structure as drawn. Where two headings read alike, the source gives them in different places. Values belong to the molecule of their own block, whether it stands above or below them.

Key:
[1] = Plasma pharmacokinetics after intraperitoneal administration; type: in vivo, CD-1 mice
Method: The plasma pharrmacokinetics of SR 4317 and TPZ were determined in C3H mice, alone and in combination (FIG. 6), to assess whether therapeutic concentrations of SR 4317 can be achieved in mice.

[2] = test system: hypoxic (radioresistant) cells in HT29 tumours; assay: HT29 tumour xenograft excision assay: clonogenic survivors 18 hr after radiation and drug; type: in vivo, mice
Method: Animals with subcutaneous tumours (ca 300 mg) received whole body radiation (RAD; 20 Gy) to sterilise oxygenated tumour cells. Activity of drugs against the hypoxic survivors was determined by intraperitoneal administration of solutions in 5% DMSO/saline 5 min after radiation, using TPZ alone (133 μmol/kg) or in combination with SR 4317 (1000 μmol/kg). Tumours were excised 18 hr after treatment, dissociated enzymatically, and plated to determine the number of clonogenic survivors. Values are geometric means and error bars are standard errors of the mean. Horizontal lines show historical values for untreated controls and radiation only (solid lines are means, dashed lines are 95% confidence limits. p values were determined by one-way ANOVA using only data within this experiment.
The utility of SR 4317 as a potentiator of the hypoxic cytotoxicity of TPZ was assessed in an in vivo model (HT29 tumour xenografts) as illustrated in FIG. 7. In this experiment tumour response was determined by excising tumours 18 hr after treatment and quantifying the number of clonogenic survivors by plating in vitro. TPZ was administered at a sub-efficacious dose (0.133 mmol/kg), 5 minutes after whole body radiation (20 Gy). […] No significant cytotoxicity was observed when the two compounds were administered in the absence of irradiation, indicating lack of activity against aerobic cells in tumours (FIG. 7).

[3] = test system: HT29 human colon carcinoma cells; assay: Cytotoxicity (plating efficiency) in stirred single cell suspensions of HT29 cells, anoxic or aerobic; settings: for Potentiation of the aerobic cytotoxicity of TPZ: HT29 cells, gas phase 5% CO2 in air
Description: Cultures were maintained at <10 ppm O2 under a continuously-flowing stream of 5% CO2 in nitrogen and were sampled at intervals to determine plating efficiency.
Experimental conditions were as for FIG. 2, except that the gas phase was 5% CO2 in air. Values are means and error bars are ranges for duplicate cultures.
Drug exposure time was 1 hr. Error bars represent the range for duplicate determinations.

HT-29 MCLs = type: in vitro ADME, human
Method: Compounds are added to the donor compartment, along with ^14C-urea as an internal standard, and diffusion into the receiver compartment is monitored by HPLC and scintillation counting.
The concentrations in the Receiver compartment (normalised against the initial concentration in the Donor compartment) are plotted against those of the flux marker ^14C-urea to account for small differences in thickness of the MCLs. The fitted diffusion coefficients for TPZ (n=12) and SR 4317 (n=2) are: […] cm^2 sec^−1, respectively.
The inventors have also investigated the extravascular transport properties (tissue diffusion characteristics) of SR 4317 to assess whether it can diffuse well enough to reach hypoxic cells in tumours efficiently. This study used the multicellular layer (MCL) assay (Hicks et al., Int. J. Radiat. Oncol., Biol., Phys., 1998, 42, 641; Hicks et al., J. Pharmacol. Exper. Ther., 2001, 297, 1088), developed in this laboratory.

Solubility of SR 4317 = type: physicochemical
HT29 cells [4] = assay: Radiosensitisation of anoxic HT29 cells; type: cell-based, human; settings: 0.6 mM of each agent; anoxic HT29 cells irradiated 5 min after drug addition
Method: Anoxic cell suspensions were irradiated 5 min after addition of pre-equilibrated anoxic drug solutions. Data are shown for duplicate determinations, and are fitted using a linear-quadratic model

HT29 cells [5] = assay: TPZ potentiation test: IC50 of TPZ with and without potentiator, anoxic HT29 cells; type: cell-based, human; settings: 4 hr anoxic exposure of HT29 cells
[6] = Approximate solubility limit in Alpha MEM culture medium containing 5% fetal calf serum; type: physicochemical; settings: dilution from DMSO stock solutions; for solubility: plasma or biological fluid, kinetic from dmso stock
[7] = test system: HT29 colon carcinoma cells; assay: IC50 assay of potentiator alone, HT29 cells, 4 hr anoxic exposure, sulphorhodamine B staining; type: cell-based, human; settings: cell density by sulphorhodamine B five days after washing out
[8] = TPZ 30 μM, anoxic HT29 cells 5×10^5/ml, drug exposure 1 hr
[9] = Homo sapiens, HT-29, 4 hr exposure under anoxic conditions
[10] = conc of potentiator 3 mM (compound 56: approximate, slight precipitation)

- Maximum SR 4317 concentration in plasma ([1]; after intraperitoneal co-administration of TPZ + SR 4317 (750 μmol/kg), mice): ~200 µM
- Plasma concentrations in mice ([1]; general statement): relatively low
- Clearance from plasma ([1]; over the first two hours after co-administration of TPZ and SR 4317, mice): slow clearance
- Transport through hypoxic MCLs (HT-29 MCLs): faster than for TPZ
- solubility (Solubility of SR 4317; aqueous solution, read-out: Aqueous solubility): ~800 µM (≈ 130 µg/mL)
- solubility (Solubility of SR 4317; as stated for the HT29 cell suspension experiment (FIG. 1), read-out: Solubility limit): ~1000 µM (≈ 162 µg/mL)
- TPR (TPZ potentiation ratio) = TPZ IC50 without potentiator/TPZ IC50 with potentiator (HT29 cells [5]; conc of potentiator 0.5 mM): 2.0
- solubility [6]: 800 µM (≈ 130 µg/mL)
- IC50 [7, 9]: > 500 µM
Compound: Nc1nc2ccccc2[n+]([O-])n1 [Compound 3, 1,2,4-Benzotriazin-3-amine 1-oxide]
- Activity of radiation + TPZ + SR 4317 compared with radiation alone ([2]; SR 4317 1 mmol/kg added to TPZ 0.133 mmol/kg after 20 Gy, p<0.01 by one way ANOVA): greater than radiation alone
- Difference between radiation+TPZ and radiation+TPZ+SR 4317 ([2]; SR 4317 1 mmol/kg, TPZ 0.133 mmol/kg, 20 Gy, p <0.05): significant
- Potentiation of the cytotoxicity of TPZ to hypoxic tumour cells ([3]; HT29 cells in culture, anoxic (<10 ppm O2), TPZ 30 μM, simultaneous exposure): increased quite markedly
- Potentiation of the aerobic cytotoxicity of TPZ ([3]; listed as SR 4317): does not potentiate
- Potentiation of the aerobic cytotoxicity of TPZ ([3]; listed as SR4317): lack of potentiation
- Potentiation of TPZ cytotoxicity ([3]; SR 4317 at 100 μM for 1 hr, TPZ 30 μM, anoxic HT29 cells): significant potentiation
- Relative dose potency for potentiation of the hypoxic cytotoxicity of TPZ [3, 8]: SR 4317>metronidazole=misonidazole
- Toxicity of SR4317 alone ([3]; anoxic HT29 suspension, 5×10^5 cells/ml, up to its solubility limit (ca 1 mM)): non-toxic
- Relative potency for radiosensitization of hypoxic HT29 cells (HT29 cells [4]): misonidazole>metronidazole=SR4317

- TPR (TPZ potentiation ratio) = TPZ IC50 without potentiator/TPZ IC50 with potentiator (HT29 cells [5]; conc of potentiator 0.2 mM): 1.9
- solubility [6]: 300 µM (≈ 60.4 µg/mL)
- IC50 [7, 9]: > 300 µM
Compound: N#CCNc1nc2ccccc2[n+]([O-])n1 [Compound 25, 2-[(1-Oxido-1,2,4-benzotriazin-3-yl)amino]acetonitrile]

- TPR (TPZ potentiation ratio) = TPZ IC50 without potentiator/TPZ IC50 with potentiator (HT29 cells [5]; conc of potentiator 1.0 mM): 13.9
- solubility [6]: 1000 µM (≈ 233 µg/mL)
- IC50 [7, 9]: > 1000 µM
Compound: CN(C)CCNc1nc2ccccc2[n+]([O-])n1 [Compound 37, N^1,N^1-Dimethyl-N^2-(1-oxido-1,2,4-benzotriazin-3-yl)-1,2-ethanediamine]

- TPR (TPZ potentiation ratio) = TPZ IC50 without potentiator/TPZ IC50 with potentiator (HT29 cells [5]; conc of potentiator 0.3 mM): 1.2
- Solubility limit [6]: 3000 µM (≈ 742 µg/mL)
- IC50 ([7]; 4 hr exposure under anoxic conditions): 830 µM
Compound: CN(C)CCCNc1nc2ccccc2[n+]([O-])n1 [Compound 44, N^1-(1-Oxido-1,2,4-benzotriazin-3-yl)-N^3,N^3-dimethyl-1,3-propan diamin]

- TPR (TPZ potentiation ratio) = TPZ IC50 without potentiator/TPZ IC50 with potentiator (HT29 cells [5]; [10]): 1.3
- solubility [6]: 3000 µM (≈ 526 µg/mL)
- IC50 [7, 9]: > 3000 µM
Compound: CCc1nc2ccccc2[n+]([O-])n1 [Compound 56, 3-Ethyl-1,2,4-benzotriazine 1-oxide]

- TPR (TPZ potentiation ratio) = TPZ IC50 without potentiator/TPZ IC50 with potentiator (HT29 cells [5]; [10]): 1.2
- solubility [6]: 3000 µM (≈ 574 µg/mL)
- IC50 [7, 9]: > 3000 µM
Compound: [O-][n+]1nc(CCO)nc2ccccc21 [Compound 61, 3-(2-Hydroxyethyl)-1,2,4-benzotriazine 1-oxide]

- TPR (TPZ potentiation ratio) = TPZ IC50 without potentiator/TPZ IC50 with potentiator (HT29 cells [5]; conc of potentiator 0.3 mM): 3.3
- solubility [6]: 300 µM (≈ 53.1 µg/mL)
- IC50 [7, 9]: > 300 µM
Compound: COc1nc2ccccc2[n+]([O-])n1 [Compound 71, 3-Methoxy-1,2,4-benzotriazine 1-oxide]

- TPR (TPZ potentiation ratio) = TPZ IC50 without potentiator/TPZ IC50 with potentiator (HT29 cells [5]; conc of potentiator 1.0 mM): 6.1
- solubility [6]: 3000 µM (≈ 658 µg/mL)
- IC50 [7, 9]: 2300 µM
Compound: CNCCNc1nc2ccccc2[n+]([O-])n1 [Compound 130, N^1-Methyl-#f-(1-oxido-1,2,4-benzotriazin-3-yl)-1,2-ethanediamine]

Compound: Nc1n[n+]([O-])c2ccccc2[n+]1[O-] [TPZ, tirapazamine, reference compound]
- Killing of the (hypoxic) cells surviving radiation ([2]; TPZ alone 0.133 mmol/kg i.p. 5 minutes after whole body radiation (20 Gy), HT29 xenografts, clonogenic survivors at 18 hr): did not result in statistically significant killing
- IC50 (HT29 cells [5]; Homo sapiens, HT-29, mean ± sem, n = 4, read-out: IC50 for TPZ alone): 6.8 µM

Compound: Cc1ncc([N+](=O)[O-])n1CCO [metronidazole, reference compound]
- Relative dose potency for potentiation of the hypoxic cytotoxicity of TPZ [3]: lower dose potency than SR 4317
- Relative potency for radiosensitization of hypoxic HT29 cells (HT29 cells [4]): misonidazole>metronidazole=SR4317

Compound: COCC(O)Cn1ccnc1[N+](=O)[O-] (stereo not drawn) [misonidazole, reference compound]
- Relative dose potency for potentiation of the hypoxic cytotoxicity of TPZ [3, 8]: lower dose potency than SR 4317
- Relative potency for radiosensitization of hypoxic HT29 cells (HT29 cells [4]): misonidazole>metronidazole=SR4317
